Test system: patients with asthma
Test: bronchodilating response (FEF25-75) to albuterol in patients with asthma by 5′LC genotype
Type: in vivo, human
Conditions: for patients exhibiting a bronchodilating response (increase in FEF25-75 greater than 12%): 180 micrograms aerosolized, 30 minutes
Excerpt: For this study, 134 patients with asthma were enrolled to determine whether either of the polymorphisms at nucleic acid −47 in the β2AR gene alter the bronchodilating response to β-agonist. The percent (%) change in the forced expiratory flow between 25% and 75% of the forced vital capacity (FEF25-75) was used as a measure of responsiveness. Patients underwent pulmonary function testing to measure FEF25-75 and then received 2 puffs (total of 180 micrograms) of aerosolized albuterol by metered dose inhaler. Thirty minutes later the FEF25-75 measurement was repeated. Based on accepted national standards, an increase in FEF25-75 of greater than 12% was considered a response, while 12% or less was considered no response.

`CC(C)(C)NCC(O)c1ccc(O)c(CO)c1` (stereo not drawn) [albuterol] was tested, and the “patients exhibiting a bronchodilating response (increase in FEF25-75 greater than 12%)” value (TT genotype at the 5′LC PS) was 28.8%, the “odds ratio for having no response” value (TT genotype versus TC or CC) was 2.47 and the “patients exhibiting a bronchodilating response (increase in FEF25-75 greater than 12%)” value (without TT genotype (TC or CC)) was 71.1%.

From patent US6861217B1, “Variation in drug response related to polymorphisms in the β2-adrenergic receptor” (Genaissance Pharmaceuticals, Inc., priority 1998, dated 2005)
